# Target: T1, Met–Tai (D. melanogaster Met co-expressed with Tai) (Drosophila melanogaster, UniProt Q9VYW2, T103P)
# T1 construct: full-length Met ORF (codon 103 CCC, Pro); heterodimer; with Taiman
# Experiment: yeast lacZ reporter gene assay (beta-galactosidase, ONPG)
# Assay type: cell-based
# Details: not given
# Source text: yeast lacZ reporter gene assay (beta-galactosidase, ONPG) on Met–Tai (D. melanogaster Met co-expressed with Tai)
# T1 sequence (Q9VYW2 1-716 T103P): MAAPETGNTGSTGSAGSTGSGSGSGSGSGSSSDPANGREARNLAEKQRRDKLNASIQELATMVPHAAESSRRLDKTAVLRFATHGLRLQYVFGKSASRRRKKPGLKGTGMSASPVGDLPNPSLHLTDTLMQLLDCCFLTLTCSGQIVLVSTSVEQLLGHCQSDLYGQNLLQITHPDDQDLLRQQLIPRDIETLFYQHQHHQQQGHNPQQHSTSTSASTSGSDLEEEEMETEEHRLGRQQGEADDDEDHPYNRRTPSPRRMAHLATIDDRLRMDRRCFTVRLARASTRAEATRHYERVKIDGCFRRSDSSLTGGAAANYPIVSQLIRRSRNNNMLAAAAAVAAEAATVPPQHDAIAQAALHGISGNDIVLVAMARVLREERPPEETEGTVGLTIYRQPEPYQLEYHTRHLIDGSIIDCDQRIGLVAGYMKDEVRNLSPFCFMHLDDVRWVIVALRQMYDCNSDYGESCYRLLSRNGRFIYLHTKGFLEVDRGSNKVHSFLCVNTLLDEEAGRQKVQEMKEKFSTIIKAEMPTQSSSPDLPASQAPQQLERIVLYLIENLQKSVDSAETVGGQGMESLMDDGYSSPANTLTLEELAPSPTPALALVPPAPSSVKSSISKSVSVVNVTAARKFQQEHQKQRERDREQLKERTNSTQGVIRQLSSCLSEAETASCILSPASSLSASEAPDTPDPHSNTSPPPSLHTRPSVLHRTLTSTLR
# T1 sequence (Q9VLD9 1-2026 partner): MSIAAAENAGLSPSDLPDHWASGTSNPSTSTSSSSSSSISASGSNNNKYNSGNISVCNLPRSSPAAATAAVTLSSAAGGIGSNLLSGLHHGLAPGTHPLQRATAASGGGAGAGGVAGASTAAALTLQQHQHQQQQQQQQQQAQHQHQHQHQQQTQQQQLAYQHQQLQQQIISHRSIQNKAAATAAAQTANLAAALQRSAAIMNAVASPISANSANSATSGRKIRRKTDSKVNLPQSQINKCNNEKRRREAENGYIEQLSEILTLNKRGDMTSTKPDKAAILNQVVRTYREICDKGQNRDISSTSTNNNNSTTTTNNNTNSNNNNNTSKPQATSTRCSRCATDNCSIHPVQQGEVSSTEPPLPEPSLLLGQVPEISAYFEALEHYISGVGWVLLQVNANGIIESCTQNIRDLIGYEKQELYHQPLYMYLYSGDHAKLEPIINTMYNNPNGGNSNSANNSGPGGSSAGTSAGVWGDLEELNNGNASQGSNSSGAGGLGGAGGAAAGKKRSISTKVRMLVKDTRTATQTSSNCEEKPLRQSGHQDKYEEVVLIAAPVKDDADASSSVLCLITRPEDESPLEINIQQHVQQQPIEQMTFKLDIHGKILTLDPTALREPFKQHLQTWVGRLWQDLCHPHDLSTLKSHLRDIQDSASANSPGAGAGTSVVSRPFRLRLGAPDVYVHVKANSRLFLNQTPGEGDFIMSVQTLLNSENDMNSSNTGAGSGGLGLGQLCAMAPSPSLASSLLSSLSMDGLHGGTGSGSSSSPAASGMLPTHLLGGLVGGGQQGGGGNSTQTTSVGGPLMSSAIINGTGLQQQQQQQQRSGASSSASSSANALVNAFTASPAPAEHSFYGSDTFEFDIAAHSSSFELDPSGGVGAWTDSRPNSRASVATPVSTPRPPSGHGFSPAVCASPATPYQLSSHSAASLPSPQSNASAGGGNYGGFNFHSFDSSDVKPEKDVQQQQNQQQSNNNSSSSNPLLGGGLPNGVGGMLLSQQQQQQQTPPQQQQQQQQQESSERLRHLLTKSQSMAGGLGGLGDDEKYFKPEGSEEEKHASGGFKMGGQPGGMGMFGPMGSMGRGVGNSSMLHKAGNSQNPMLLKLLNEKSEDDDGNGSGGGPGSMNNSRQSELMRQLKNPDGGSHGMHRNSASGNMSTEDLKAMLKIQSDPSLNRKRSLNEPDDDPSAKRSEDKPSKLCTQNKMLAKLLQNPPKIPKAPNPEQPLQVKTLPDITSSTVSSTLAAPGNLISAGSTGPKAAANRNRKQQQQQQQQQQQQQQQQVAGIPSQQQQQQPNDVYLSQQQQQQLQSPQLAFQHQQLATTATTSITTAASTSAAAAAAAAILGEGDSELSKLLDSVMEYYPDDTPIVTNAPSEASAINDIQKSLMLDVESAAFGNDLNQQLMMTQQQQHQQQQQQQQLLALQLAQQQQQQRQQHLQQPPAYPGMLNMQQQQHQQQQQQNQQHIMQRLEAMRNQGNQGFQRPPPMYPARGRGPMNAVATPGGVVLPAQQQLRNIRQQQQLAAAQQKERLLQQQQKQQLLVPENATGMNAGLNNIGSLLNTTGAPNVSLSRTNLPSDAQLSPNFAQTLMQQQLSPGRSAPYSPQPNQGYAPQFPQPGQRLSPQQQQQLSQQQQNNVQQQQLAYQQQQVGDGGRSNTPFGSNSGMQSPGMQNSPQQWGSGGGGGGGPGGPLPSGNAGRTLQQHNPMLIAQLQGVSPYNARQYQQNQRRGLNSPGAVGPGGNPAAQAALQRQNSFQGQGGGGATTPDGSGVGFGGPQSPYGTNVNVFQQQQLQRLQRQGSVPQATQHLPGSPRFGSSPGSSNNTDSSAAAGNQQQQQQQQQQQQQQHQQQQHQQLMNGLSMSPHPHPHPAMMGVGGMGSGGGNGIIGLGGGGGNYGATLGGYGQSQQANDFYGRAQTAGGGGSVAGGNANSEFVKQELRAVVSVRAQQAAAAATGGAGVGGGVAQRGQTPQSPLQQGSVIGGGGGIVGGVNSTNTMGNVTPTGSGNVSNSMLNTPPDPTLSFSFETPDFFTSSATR
row,Structure (SMILES),EC50
1,CCOC(=O)NCCOc1ccc(Oc2ccccc2)cc1 [Fenoxycarb],3 ± 1 nM
2,COC(C)(C)CCCC(C)C/C=C/C(C)=C/C(=O)OC(C)C (stereo not drawn) [Methoprene],1100 ± 230 nM
3,COC(=O)/C=C(\C)CC/C=C(\C)CC[C@H]1OC1(C)C [JH III],62 ± 5 nM
4,CC/C(=C\CC/C(C)=C/C(=O)OC)CC[C@H]1O[C@@]1(C)CC [JH I],65 ± 11 nM
5,COC(=O)/C=C(\C)CC/C=C(\C)CCC=C(C)C [Methyl farnesoate],160 ± 7 nM
6,CC[C@]1(C)O[C@@H]1CC/C(C)=C/CC/C(C)=C/C(=O)OC [JH II],50 ± 17 nM
7,CC/C(=C\C(=O)OC)CC/C=C(\CC)CC[C@H]1O[C@@]1(C)CC [JH 0],213 ± 14 nM
8,CCOC(=O)/C=C(C)/C=C/C[C@@H](C)CCCC(C)C [(S)‐hydroprene],570 ± 150 nM

# Same assay, conditions: agonist; 30 °C, 18 h; Tai co-expressed; BmkJHRE x 2 reporter
row,Structure (SMILES),EC50
1,CC(COc1ccc(Oc2ccccc2)cc1)Oc1ccccn1 (stereo not drawn) [Pyriproxyfen],87 ± 12 nM
